The values below come from US6034251A, “Phenyl-alkyl-imidazoles” (Schering Corporation, priority 1998, dated 2000).

SMILES strings stand for the structures. pKi: −log10 of the molar value.

T1 sequence (Q9JI35 whole entry): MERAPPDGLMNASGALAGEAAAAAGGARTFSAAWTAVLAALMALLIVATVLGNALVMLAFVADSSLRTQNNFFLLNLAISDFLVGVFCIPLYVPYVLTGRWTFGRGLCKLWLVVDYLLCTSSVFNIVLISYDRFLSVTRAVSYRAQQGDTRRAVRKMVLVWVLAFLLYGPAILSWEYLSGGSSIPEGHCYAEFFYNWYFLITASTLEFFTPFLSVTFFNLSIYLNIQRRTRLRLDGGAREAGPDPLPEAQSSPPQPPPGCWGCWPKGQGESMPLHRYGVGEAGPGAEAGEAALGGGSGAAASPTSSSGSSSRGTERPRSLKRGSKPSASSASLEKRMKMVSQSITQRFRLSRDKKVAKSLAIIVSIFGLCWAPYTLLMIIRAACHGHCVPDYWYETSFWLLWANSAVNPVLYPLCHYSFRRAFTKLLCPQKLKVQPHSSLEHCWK

One assay concerns histamine H3 receptor.
Experiment: not given
Particulars: mice, electrically induced convulsions; cited from earlier work.
Turning to `S=C(NC1CCCCC1)N1CCC(c2cnc[nH]2)CC1` [thioperamide], the “duration of each phase of convulsion” value was “decreased” and the electroconvulsive threshold entry was “raised”.

Another assay addresses T1, H3 receptors (Cavia porcellus, UniProt Q9JI35).
T1 construct: The source of the H3 receptors in this experiment was guinea pig brain; from tissue; host or cells: guinea pig brain membranes
Briefly: H3 Receptor Binding Assay. Particulars: guinea pig brain membranes; 3 nM [3H]R-α-methylhistamine or 3 nM [3H]Nα-methylhistamine; 50 mM Tris pH 7.5, 30° C., 30 min. The protocol: The source of the H3 receptors in this experiment was guinea pig brain. The animals weighed 400-600 g. The brain tissue was homogenized using a Polytron in a solution of 50 mM Tris, pH 7.5. The final concentration of tissue in the homogenization buffer was 10% w/v. The homogenates were centrifuged at 1,000×g for 10 min. in order to remove clumps of tissue and debris. The resulting supernatants were then centrifuged at 50,000×g for 20 min. in order to sediment the membranes, which were next washed three times in homogenization buffer (50,000×g for 20 min. each). The membranes were frozen and stored at -70° C. until needed.
All compounds to be tested were dissolved in DMSO and then diluted into the binding buffer (50 mM Tris, pH 7.5) such that the final concentration was 2 μg/ml with 0.1% DMSO. Membranes were then added (400 μg of protein) to the reaction tubes. The reaction was started by the addition of 3 nM [^3 H]R-α-methylhistamine (8.8 Ci/mmol) or 3 nM [^3 H]N^α -methylhistamine (80 Ci/mmol) and continued under incubation at 30° C. for 30 min. Bound ligand was separated from unbound ligand by filtration, and the amount of radioactive ligand bound to the membranes was quantitated by liquid scintillation spectrometry. All incubations were performed in duplicate and the standard error was always less than 10%. Compounds that inhibited more than 70% of the specific binding of radioactive ligand to the receptor were serially diluted to determine a Ki (nM).
Take `O=C(/C=C/c1ccc(Cc2c[nH]cn2)cc1)NCc1ccc2ccccc2c1` [Compound 26]: the negative logarithm of the Ki (pKi) is 6.70.

As for `CN1CCCC1CCNC(=O)/C=C/c1ccc(Cc2c[nH]cn2)cc1` (stereo not drawn) [Compound 27], the negative logarithm of the Ki (pKi) was 6.00.

In turn, `O=C(/C=C/c1ccc(Cc2c[nH]cn2)cc1)NCCc1ccccc1` [Compound 29] had a negative logarithm of the Ki (pKi) of 7.77.

`O=C(/C=C/c1ccc(Cc2c[nH]cn2)cc1)NC1CCCc2ccccc21` (stereo not drawn) [Compound 24]: the pKi is 6.66.

`O=C(/C=C/c1ccc(Cc2c[nH]cn2)cc1)NCc1ccc(Cl)cc1` [Compound 2] had a negative logarithm of the Ki (pKi) of 7.64. This pKi is 0.98 log units higher than that of the molecule before.

For the molecule `O=C(/C=C/c1ccc(Cc2c[nH]cn2)cc1)NCc1ccco1` [Compound 21], the pKi was 6.96.

Molecule `CN(CCc1ccc(Cl)cc1)C(=O)/C=C/c1ccc(Cc2c[nH]cn2)cc1` [Compound 5] had a pKi of 7.46. This pKi is 0.50 log units higher than that of the molecule before.

The molecule `O=C(/C=C/c1ccc(Cc2c[nH]cn2)cc1)NCCc1ccccc1F` [Compound 18] showed a negative-log Ki (pKi) of 8.00.

On to `O=C(/C=C/c1ccc(Cc2c[nH]cn2)cc1)NCCc1c[nH]c2ccccc12` [Compound 12], for which the pKi is 7.35.

For `O=C(/C=C/c1ccc(Cc2c[nH]cn2)cc1)NCCc1ccsc1` [Compound 15], the pKi was 7.92. Against the preceding molecule, the pKi is 0.57 log units higher.

`O=C(/C=C/c1ccc(Cc2c[nH]cn2)cc1)Nc1cccc(F)c1` [Compound 35] had a pKi of 9.00.

`O=C(/C=C/c1ccc(Cc2c[nH]cn2)cc1)Nc1ccccc1` [Compound 6] had a pKi of 8.70.

On to `Cc1ccc(CCNC(=O)/C=C/c2ccc(Cc3c[nH]cn3)cc2)cc1` [Compound 22], for which the pKi was 8.22.

The molecule `O=C(/C=C/c1ccc(Cc2c[nH]cn2)cc1)NCCc1cccnc1` [Compound 17] had a negative-log Ki (pKi) of 6.72.

Regarding `O=C(/C=C/c1ccc(Cc2c[nH]cn2)cc1)Nc1cccc(Cl)c1` [Compound 31], the pKi was 8.40.

For `O=C(/C=C/c1ccc(Cc2c[nH]cn2)cc1)NCCc1cccc(Cl)c1` [Compound 8], the pKi was 7.96.

`O=C(/C=C/c1ccc(Cc2c[nH]cn2)cc1)NCCc1ccc(Cl)cc1Cl` [Compound 28]: the pKi was 7.44. This pKi lies 0.52 log units lower than the previous one.

For `CN(C(=O)/C=C/c1ccc(Cc2c[nH]cn2)cc1)c1ccc(Cl)cc1` [Compound 4], the negative-log Ki (pKi) was 7.35.

The molecule `CC(Cc1ccc(Cl)cc1)NC(=O)/C=C/c1ccc(Cc2c[nH]cn2)cc1` (stereo not drawn) [Compound 9] showed a negative logarithm of the Ki (pKi) of 8.00.

Molecule `O=C(/C=C/c1ccc(Cc2c[nH]cn2)cc1)NC1CCCCC1` [Compound 7] had a pKi of 7.59.

The molecule `Cc1cc(C)cc(NC(=O)/C=C/c2ccc(Cc3c[nH]cn3)cc2)c1` [Compound 34] gave a pKi of 8.70.

`O=C(/C=C/c1ccc(Cc2c[nH]cn2)cc1)NCCCN1CCCC1` [Compound 20] had a negative logarithm of the Ki (pKi) of 6.24.

Molecule `O=C(/C=C/c1ccc(Cc2c[nH]cn2)cc1)c1ccc(Cl)cc1` [Compound 25] showed a pKi of 6.40. The pKi values of the last two molecules are within 0.2 log units of each other.

As to `O=C(/C=C/c1ccc(Cc2c[nH]cn2)cc1)Nc1ccc(OC(F)(F)F)cc1` [Compound 38], the pKi is 8.00. This pKi is 1.60 log units higher than that of the molecule before.

Consider `COc1ccc(CCNC(=O)/C=C/c2ccc(Cc3c[nH]cn3)cc2)cc1` [Compound 11], for which the pKi is 8.15.

In the case of `O=C(/C=C/c1ccc(Cc2c[nH]cn2)cc1)NCCc1cccc(F)c1` [Compound 16], the negative logarithm of the Ki (pKi) was 8.00.

Take `COc1cccc(NC(=O)/C=C/c2ccc(Cc3c[nH]cn3)cc2)c1` [Compound 33]: the pKi was 8.52.

In turn, `O=C(/C=C/c1ccc(Cc2c[nH]cn2)cc1)Nc1cc(Cl)cc(Cl)c1` [Compound 30] had a pKi of 7.92.

The molecule `O=C(/C=C/c1ccc(Cc2c[nH]cn2)cc1)Nc1cccc(OC(F)(F)F)c1` [Compound 37] had a pKi of 8.10.

Take `N#Cc1cccc(NC(=O)/C=C/c2ccc(Cc3c[nH]cn3)cc2)c1` [Compound 32]: the negative logarithm of the Ki (pKi) is 8.40. This pKi is 0.30 log units higher than that of the molecule before.

Molecule `O=C(/C=C/c1ccc(Cc2c[nH]cn2)cc1)NCCc1ccccc1Cl` [Compound 19] had a pKi of 7.92.

In the case of `O=C(/C=C/c1ccc(Cc2c[nH]cn2)cc1)Nc1ccc(F)cc1` [Compound 36], the pKi was 8.30. This pKi is 0.38 log units higher than that of the molecule before.

On to `CC(CCc1ccccc1)NC(=O)/C=C/c1ccc(Cc2c[nH]cn2)cc1` (stereo not drawn) [Compound 23], for which the pKi was 7.43.

On to `CC(CNC(=O)/C=C/c1ccc(Cc2c[nH]cn2)cc1)c1ccccc1` (stereo not drawn) [Compound 10], for which the negative-log Ki (pKi) was 7.72.

In the case of `O=C(/C=C/c1ccc(Cc2c[nH]cn2)cc1)Nc1ccc(Cl)cc1` [Compound 1], the pKi is 8.70. Compared with the last molecule, the pKi is 0.98 log units higher.

For `Cn1cnc(Cc2ccc(/C=C/C(=O)Nc3ccc(Cl)cc3)cc2)c1` [Compound 13], the pKi is 6.57. Compared with the last molecule, the pKi is 2.13 log units lower.

The molecule `O=C(/C=C/c1ccc(Cc2c[nH]cn2)cc1)NCCc1ccc(Cl)cc1` [Compound 3] showed a pKi of 8.15.

A word on the pKi: it is the negative decadic logarithm of the Ki, by convention in mol/L. Lower therefore signals a large Ki.
